Source: US20230286973A1, “PROTEIN SECRETION INHIBITORS” (KEZAR LIFE SCIENCES, priority 2020, published 2023)

Key:
[1] = Liver Microsome Stability Assay (monkey); conditions: monkey liver microsomes, with NADPH, 1.0 uM compound
Method: (§1) Stability of a compound was assessed in the presence of liver microsomes from various sources—mouse, rat, monkey and human liver microsomes. 1.0 uM compound, 0.4% DMSO in 0.1 M Potassium Phosphate with 1.0 mg/mL liver microsomes, were incubated at 37° C. with or without 1 mM NADPH. The samples were quenched at 0, and 30 minutes.

[2] = Liver Microsome Stability Assay (human); conditions: human liver microsomes, with NADPH, 1.0 uM compound
Method: as §1

[3] = system: IL-2-FL/Gaussia Luciferase; experiment: Dox Induced IL2-FL-Gluc Assay; format: cell-based; conditions: for IC50: 24 hr Dox induction, 293FRT/TO cells, mean, read-out: 24 hr Dox Inducible IL2FLGluc 293FRT/TO: Mean IC50; for 24 hr Dox Inducible IL2FLGluc 293FRT/TO: IL2/PD1: ratio of IL2FLGluc IC50 to PD1ssGluc IC50, '<=>' given where both are I.A.
Method in brief: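 Doxycycline induces an IL-2(1-153)–Gaussia luciferase fusion in a stable Flp-In 293 T-REx line. Compound exposure runs alongside induction at 37° C.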

[4] = system: multiple myeloma cell line U266B1; experiment: U266 Cell Viability Assay; format: cell-based, human; conditions: Homo sapiens, U-266, 48 h, U266B1 cells, Celltiter-Glo
Method in brief: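 Viability is measured as luciferase signal from CellTiter-Glo following a 48-hour incubation with compound at 37° C. under 5% CO2. Where structures lack drawn stereochemistry, values refer to stereoisomer mixtures.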

[5] = system: HER3-ss+4aa/Gaussia Luciferase; experiment: Dox-Induced Her3-ss-Gluc Assay; format: cell-based; conditions: 24 hr Dox induction; 293FRT/TO cells; mean; read-out: 24 hr Dox Inducible Her3(ss + 4)Gluc 293FRT/TO: Mean IC50
Method in brief: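 Reporter line: Flp-In 293 T-REx, T-REx-regulated HER3-ss+4aa fused to Gaussia luciferase. Compound co-added with doxycycline after overnight plating, 37° C., 5% CO2.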

[6] = system: PD1-ss+10aa/Gaussia Luciferase; experiment: Dox-Induced PD1-ss-Gluc Assay; format: cell-based; conditions: 24 hr Dox induction; 293FRT/TO cells; mean; read-out: 24 hr Dox Inducible PD1ssGluc 293FRT/TO: Mean IC50
Method in brief: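 Gaussia luciferase fused downstream of the PD1 signal peptide plus 10 residues was expressed on doxycycline induction in stably transfected Flp-In 293 T-REx cells. Compounds were added with doxycycline and incubated at 37 °C, 5% CO2.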

[7] = Liver Microsome Stability Assay (rat); conditions: rat liver microsomes, with NADPH, 1.0 uM compound
Method: as §1

[8] = system: TNFα-FL/Gaussia Luciferase; experiment: Dox Induced TNFα-FL-Gluc Assay; format: cell-based; conditions: for IC50: 24 hr Dox induction, 293FRT/TO cells, mean, read-out: 24 hr Dox Inducible TNFaFLGluc 293FRT/TO: Mean IC50; for 24 hr Dox Inducible TNFaFLGluc 293FRT/TO: TNF/PD1: ratio of TNFaFLGluc IC50 to PD1ssGluc IC50, '<=>' given where both are I.A.
Method in brief: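 Doxycycline-inducible Gaussia luciferase-tagged full-length TNFα (1-233) was expressed in stable Flp-In 293 T-REx cells. Compounds were co-added with doxycycline and incubated at 37 °C, 5% CO2.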

[9] = system: multiple myeloma cell line NCI-H929; experiment: H929 Cell Viability Assay; format: cell-based, human; conditions: Homo sapiens, NCI-H929, 48 h, NCI-H929 cells, Celltiter-Glo
Method in brief: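 Viability is scored by CellTiter-Glo luminescence following a 48-hour treatment at 37° C. Data for structures shown without stereochemistry refer to stereoisomer mixtures.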

[10] = Liver Microsome Stability Assay (mouse); conditions: mouse liver microsomes, with NADPH, 1.0 uM compound
Method: as §1

Structure (SMILES) | Liver Microsome Stability (Multiple Species): Monkey - % Remaining after 30 min w/NADPH [1] [%] | Liver Microsome Stability (Multiple Species): Human - % Remaining after 30 min w/NADPH [2] [%] | IC50 [3] [nM] | 24 hr Dox Inducible IL2FLGluc 293FRT/TO: IL2/PD1 [3] | EC50 [4] [nM] | IC50 [5] [nM] | IC50 [6] [nM] | Liver Microsome Stability (Multiple Species): Rat - % Remaining after 30 min w/NADPH [7] [%] | IC50 [8] [nM] | 24 hr Dox Inducible TNFaFLGluc 293FRT/TO: TNF/PD1 [8] | EC50 [9] [nM] | Liver Microsome Stability (Multiple Species): Mouse - % Remaining after 30 min w/NADPH [10] [%]
N#CC[C@@H](O)Cn1cccc1C(=O)Nc1nc([C@H]2CCCN2c2ccccc2)cs1 [Compound C112, 1-((R)-3-cyano-2-hydroxypropyl)-N-(4-((R)-1-phenylpyrrolidin-2-yl)thiazol-2-yl)-1H-pyrrole-2-carboxamide] | 13.1 | 23.6 | 2290 | 4.2 | > 25000 | 2240 | 545 | 12.6 | 9740 | 17.9 | 20700 | 3.03
CCC(CC#N)Cn1cccc1C(=O)Nc1nc([C@H]2CCCN2c2ccccc2)cs1 (stereo partly drawn) [Compound C113, 1-(2-(cyanomethyl)butyl)-N-(4-((R)-1-phenylpyrrolidin-2-yl)thiazol-2-yl)-1H-pyrrole-2-carboxamide] | 3.66 | 14.9 | 1800 | 2 | > 25000 | 1330 | 879 | 14.8 | 16300 | 18.6 | 22800 | 5.06
O=C(Nc1nc(/C=C/c2cn(CCO)cn2)cs1)c1cccn1Cc1ccncc1 [Compound C114, (E)-N-(4-(2-(1-(2-hydroxyethyl)-1H-imidazol-4-yl)vinyl)thiazol-2-yl)-1-(pyridin-4-ylmethyl)-1H-pyrrole-2-carboxamide] | 0.22 | 0.67 | > 25000 | >3.6 | > 25000 | > 25000 | 6900 | 19.2 | > 25000 | >3.62 | > 25000 | 15.2
O=C(Nc1nc([C@H]2CCCN2c2ccccc2)cs1)c1cccn1-c1csc2cnccc12 [Compound C115, (R)-N-(4-(1-phenylpyrrolidin-2-yl)thiazol-2-yl)-1-(thieno[2,3-c]pyridin-3-yl)-1H-pyrrole-2-carboxamide] | 0.66 | 1.3 | 613 | 2.1 | > 25000 | 552 | 287 | 2.2 | 3530 | 12.3 | > 22800 | 1.07
O=C(Nc1nc([C@H]2CCCN2c2ccccc2)cs1)c1cccn1CCCC1COC1 [Compound C116, (R)-1-(3-(oxetan-3-yl)propyl)-N-(4-(1-phenylpyrrolidin-2-yl)thiazol-2-yl)-1H-pyrrole-2-carboxamide] | 6.55 | 24.8 | 1590 | 1.5 | > 25000 | 1060 | 1030 | 6.02 | 7540 | 7.3 | > 25000 | 5.51
CC(=O)Nc1ccc(N2CCC[C@@H]2c2csc(NC(=O)c3cccn3C[C@@H](C)CC#N)n2)cc1 [Compound C117, N-(4-((R)-1-(4-acetamidophenyl)pyrrolidin-2-yl)thiazol-2-yl)-1-((S)-3-cyano-2-methylpropyl)-1H-pyrrole-2-carboxamide] | 4.1 | 9.81 | 54.3 | 2.1 | > 25000 | 49.6 | 25.6 | 16.5 | 275 | 10.7 | 1130 | 7.53
O=C(Nc1nc([C@H]2CCCN2c2ccccc2)cs1)c1cccn1Cc1cccc(F)c1 [Compound C118, (R)-1-(3-fluorobenzyl)-N-(4-(1-phenylpyrrolidin-2-yl)thiazol-2-yl)-1H-pyrrole-2-carboxamide] | 26.9 | 59.7 | 1010 | 1.4 | > 25000 | 732 | 719 | 33.5 | 9780 | 13.6 | > 25000 | 48.1
O=C(Nc1nc([C@H]2CCCN2c2ccccc2)cs1)c1cccn1Cc1ccc(F)cc1 [Compound C119, (R)-1-(4-fluorobenzyl)-N-(4-(1-phenylpyrrolidin-2-yl)thiazol-2-yl)-1H-pyrrole-2-carboxamide] | 23.4 | 61.3 | 1620 | 0.76 | > 25000 | 1510 | 2120 | 49.6 | > 25000 | >11.8 | > 25000 | 42.4
